≈ marks a conversion by molar mass, not a printed value.
How the values were obtained:
P. aeruginosa 659 = assay: MIC, twofold microdilution, clinical strain; format: cell-based; details: Pseudomonas aeruginosa, 18 h
E. coli 520 = assay: MIC, twofold microdilution, clinical strain; format: cell-based; details: Escherichia coli, 18 h
S. aureus T5595 = assay: MIC, twofold microdilution, clinical strain; format: cell-based, Staphylococcus aureus; details: for MIC S. aureus T5595: 18 h; for MIC: Staphylococcus aureus, T5595, 18 h
K. pneumoniae 28 = assay: MIC, twofold microdilution, clinical strain; format: cell-based; details: Klebsiella pneumoniae, 18 h
PC3 cells = assay: MTT assay, cytotoxic activity; format: cell-based, human; details: MTT, 72 h
Procedure, shortened: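 Cytotoxicity readout: relative MTT level (%), i.e. absorbance of compound-treated PC3 cells divided by that of untreated controls, ×100. Cultures were kept in a humidified 37 °C, 5% CO2 incubator.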

S. epidermidis 5253 = assay: MIC, twofold microdilution, clinical strain; format: cell-based, Staphylococcus epidermidis; details: for MIC: Staphylococcus epidermidis, 5253, 18 h
E. coli 600 = assay: MIC, twofold microdilution, clinical strain; format: cell-based, Escherichia coli; details: Escherichia coli, 600, 18 h
[1] = MTT assay, cytotoxic activity; format: cell-based; details: human, HaCaT cells (immortal keratinocytes); MTT, 72 h, normal cell line; read-out: IC50 HaCaT
Procedure, shortened: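 Viability was calculated as A/B × 100%, with A the absorbance of treated samples and B that of untreated controls, from MTT reduction. Cells were cultured in a humidified 37 °C/5% CO2 incubator.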

P. aeruginosa ATCC 15442 = assay: MIC, twofold microdilution, standard strain; format: cell-based, Pseudomonas aeruginosa; details: for MIC: Pseudomonas aeruginosa, ATCC15442, standard strain, 18 h
K. pneumoniae 510 = assay: MIC, twofold microdilution, clinical strain; format: cell-based, Klebsiella pneumoniae; details: for MIC: Klebsiella pneumoniae, 510, clinical strain, 18 h
S. epidermidis 4341 = assay: MIC, twofold microdilution, clinical strain; format: cell-based; details: Staphylococcus epidermidis, 18 h
M. tuberculosis H37Rv = assay: Tuberculostatic activity, Microplate Alamar Blue Assay (MIC); format: cell-based, Mycobacterium tuberculosis; parameters: concentration with growth inhibition as good as RMP and SM or EMB: unit not given here; details: for MIC: Mycobacterium tuberculosis, H37RV, MABA, read-out: MIC M. tuberculosis H37Rv
[2] = test system: S. epidermidis ATCC 12228; assay: MIC, twofold microdilution, standard strain; format: cell-based; details: Staphylococcus epidermidis, ATCC12228, 18 h
[3] = test system: clinical bacterial strains; assay: MIC, clinical isolates as groups of strains; format: cell-based; details: for MIC: clinical strains, read-out: MIC against selected E. coli and E. cloacae strains
E. coli ATCC 25922 = assay: MIC, twofold microdilution, standard strain; format: cell-based, Escherichia coli; details: for MIC: Escherichia coli, ATCC25922, standard strain, 18 h
[4] = test system: S. epidermidis ATCC 35984; assay: MIC, twofold microdilution, standard strain; format: cell-based; details: Staphylococcus epidermidis, ATCC35984, 18 h
S. aureus ATCC 29213 = assay: MIC, twofold microdilution, standard strain; format: cell-based; details: Staphylococcus aureus, ATCC29213, 18 h
S. aureus ATCC 25923 = assay: MIC, twofold microdilution, standard strain; format: cell-based; details: Staphylococcus aureus, ATCC25923, 18 h
S. aureus T5591 = assay: MIC, twofold microdilution, clinical strain; format: cell-based, Staphylococcus aureus; details: for MIC S. aureus T5591: 18 h; for MIC: Staphylococcus aureus, T5591, 18 h
E. coli 951 = assay: MIC, twofold microdilution, clinical strain; format: cell-based; details: Escherichia coli, 18 h
P. aeruginosa 37 = assay: MIC, twofold microdilution, clinical strain; format: cell-based; details: Pseudomonas aeruginosa, 18 h
S. aureus 180 = assay: MIC, twofold microdilution, clinical strain; format: cell-based; details: Staphylococcus aureus, 18 h
[5] = test system: M. tuberculosis Spec. 192; assay: Tuberculostatic activity, Microplate Alamar Blue Assay (MIC); format: cell-based; details: Mycobacterium tuberculosis, MABA, read-out: MIC M. tuberculosis Spec. 192 (sensitive to tuberculostatics)
S. pasteuri KR 4358 = assay: MIC, twofold microdilution, clinical strain; format: cell-based; details: Staphylococcus pasteuri, KR4358, 18 h
S. aureus ATCC 6538 = assay: MIC, twofold microdilution, standard strain; format: cell-based, Staphylococcus aureus; details: for MIC: Staphylococcus aureus, ATCC6538, standard strain, 18 h
S. epidermidis KR4243/1 = assay: MIC, twofold microdilution, clinical strain; format: cell-based; details: Staphylococcus epidermidis, 18 h
S. aureus NCTC 4163 = assay: MIC, twofold microdilution, standard strain; format: cell-based; details: Staphylococcus aureus, NCTC4163, 18 h
S. aureus 5595 = assay: MIC, twofold microdilution, clinical strain; format: cell-based; details: Staphylococcus aureus, 18 h
E. cloacae 8 = assay: MIC, twofold microdilution, clinical strain; format: cell-based, Escherichia cloacae; details: for MIC: Enterobacter cloacae, 8, clinical strain, 18 h

SMILES | MIC (P. aeruginosa 659) [µg/mL] | MIC (E. coli 520) [µg/mL] | MIC (S. aureus T5595) [µg/mL] | MIC (K. pneumoniae 28) [µg/mL] | IC50 (PC3 cells; Homo sapiens, PC-3, 72 h) [µM] | MIC (S. epidermidis 5253) [µg/mL] | MIC (E. coli 600) [µg/mL] | IC50 at 72 h [1] [µM] | MIC (P. aeruginosa ATCC 15442) [µg/mL] | MIC (K. pneumoniae 510) [µg/mL] | MIC (S. epidermidis 4341) [µg/mL] | MIC (M. tuberculosis H37Rv) [µg/mL] | MIC [2] [µg/mL] | MIC (E. coli ATCC 25922) [µg/mL] | MIC [4] [µg/mL] | MIC (S. aureus ATCC 29213) [µg/mL] | MIC (S. aureus ATCC 25923) [µg/mL] | MIC (S. aureus T5591) [µg/mL] | MIC (E. coli 951) [µg/mL] | MIC (P. aeruginosa 37) [µg/mL] | further results
O=C(O)c1cn(C2CC2)c2cc(N3CCN(C(=O)C4CC4)CC3)c(F)cc2c1=O [Compound 2, 7-(4-Cyclopropanecarbonyl-piperazin-1-yl)-1-cyclopropyl-6-fluoro-4-oxo-1,4-dihydro-quinoline-3-carboxylic Acid] | 6.4 (≈ 16 µM) | 0.2 (≈ 0.501 µM) | 0.1 to 0.2 (≈ 0.25 to 0.501 µM) | > 25.6 | 85.2 ± 8.2 | 12.8 to 25.6 (≈ 32 to 64.1 µM) | 0.2 (≈ 0.501 µM) | 75.7 ± 7.5 | 0.8 (≈ 2 µM) | 25.6 (≈ 64.1 µM) | 12.8 (≈ 32 µM) | 1 (≈ 2.5 µM) | 0.1 (≈ 0.25 µM) | 0.05 (≈ 0.125 µM) | 0.1 (≈ 0.25 µM) | 0.1 (≈ 0.25 µM) | 0.2 (≈ 0.501 µM) | 0.1 to 0.2 (≈ 0.25 to 0.501 µM) | 6.4 (≈ 16 µM) | 12.8 (≈ 32 µM) | MIC S. aureus T5595 (S. aureus T5595): 0.2 µg/mL (≈ 0.501 µM); MIC S. epidermidis 5253 (S. epidermidis 5253; 18 h): 25.6 µg/mL (≈ 64.1 µM); concentration with growth inhibition as good as RMP and SM or EMB (M. tuberculosis H37Rv; M. tuberculosis H37Rv): 1–2; times more powerful than CP ([3]; S. aureus T5595 and T5591): 1.25–2.5 times; MIC [3]: 0.1 to 0.8 µg/mL (≈ 0.25 to 2 µM); MIC S. aureus T5591 (S. aureus T5591): 0.2 µg/mL (≈ 0.501 µM); MIC (S. aureus 180): 0.4 µg/mL (≈ 1 µM); MIC [5]: 0.5 µg/mL (≈ 1.25 µM); MIC (S. pasteuri KR 4358): 0.2 µg/mL (≈ 0.501 µM); MIC (S. aureus ATCC 6538): 0.1 µg/mL (≈ 0.25 µM); MIC (S. epidermidis KR4243/1): 0.2 µg/mL (≈ 0.501 µM); MIC (S. aureus NCTC 4163): 0.1 µg/mL (≈ 0.25 µM); MIC (S. aureus 5595): 0.4 µg/mL (≈ 1 µM); MIC times lower than CP alone (E. cloacae 8; E. cloacae isolate): 1.2 times; MIC (E. cloacae 8): 0.05 µg/mL (≈ 0.125 µM)
O=C(O)c1cn(C2CC2)c2cc(N3CCN(C(=O)CCl)CC3)c(F)cc2c1=O [Compound 3, 7-[4-(2-Chloroacetyl)-piperazin-1-yl]-1-cyclopropyl-6-fluoro-4-oxo-1,4-dihydro-quinoline-3-carboxylic Acid] | > 25.6 | 0.4 (≈ 0.981 µM) | 0.1 to 0.2 (≈ 0.245 to 0.49 µM) | > 25.6 | 2.02 to 4.8 | > 25.6 | 0.4 (≈ 0.981 µM) | 35.7 ± 8.2 | 6.4 (≈ 15.7 µM) | 25.6 (≈ 62.8 µM) | 12.8 (≈ 31.4 µM) | 4 (≈ 9.81 µM) | 0.2 (≈ 0.49 µM) | 0.2 (≈ 0.49 µM) | 0.1 (≈ 0.245 µM) | 0.2 (≈ 0.49 µM) | 0.2 (≈ 0.49 µM) | 0.1 to 0.2 (≈ 0.245 to 0.49 µM) | > 25.6 | > 25.6 | MIC S. aureus T5595 (S. aureus T5595): 0.2 µg/mL (≈ 0.49 µM); IC50 (PC3 cells): 2.02 ± 0.1 µM; times more powerful than CP ([3]; S. aureus T5595 and T5591): 1.25–2.5 times; MIC [3]: 0.1 to 0.8 µg/mL (≈ 0.245 to 1.96 µM); MIC S. aureus T5591 (S. aureus T5591): 0.1 µg/mL (≈ 0.245 µM); MIC (S. aureus 180): 0.4 µg/mL (≈ 0.981 µM); MIC [5]: 2 µg/mL (≈ 4.9 µM); MIC (S. pasteuri KR 4358): 0.2 µg/mL (≈ 0.49 µM); MIC (S. aureus ATCC 6538): 0.2 µg/mL (≈ 0.49 µM); MIC (S. epidermidis KR4243/1): 0.2 µg/mL (≈ 0.49 µM); MIC (S. aureus NCTC 4163): 0.1 µg/mL (≈ 0.245 µM); MIC (S. aureus 5595): 0.4 µg/mL (≈ 0.981 µM); MIC (E. cloacae 8): 0.8 µg/mL (≈ 1.96 µM)
O=C(O)c1cn(C2CC2)c2cc(N3CCN(C(=O)CCCCl)CC3)c(F)cc2c1=O [Compound 5, 7-[4-(4-Chlorobutyryl)-piperazin-1-yl]-1-cyclopropyl-6-fluoro-4-oxo-1,4-dihydro-quinoline-3-carboxylic Acid] | 0.8 (≈ 1.84 µM) | 0.025 (≈ 0.0574 µM) | 0.4 (≈ 0.918 µM) | > 25.6 | 97.2 ± 11 | > 25.6 | 0.025 (≈ 0.0574 µM) | > 100 | 0.2 (≈ 0.459 µM) | 6.4 (≈ 14.7 µM) | 12.8 (≈ 29.4 µM) | 0.5 (≈ 1.15 µM) | 0.4 (≈ 0.918 µM) | 0.025 (≈ 0.0574 µM) | 0.2 (≈ 0.459 µM) | 0.4 (≈ 0.918 µM) | 0.8 (≈ 1.84 µM) | 0.4 (≈ 0.918 µM) | 0.8 (≈ 1.84 µM) | 0.8 (≈ 1.84 µM) | MIC used in biofilm eradication assay, P. aeruginosa 15442 (P. aeruginosa ATCC 15442; Table S1, MIC): 0.200 µg/mL (≈ 0.459 µM); share of the reference (CP) activity (K. pneumoniae 510; Klebsiella pneumoniae rods): 62.5%; share of the reference (CP) activity ([3]; S. aureus T5595 and T5591): 62.5%; MIC used in biofilm eradication assay, E. coli ATCC 25922 (E. coli ATCC 25922; Table S1, MIC): 0.025 µg/mL (≈ 0.0574 µM); MIC (S. aureus 180): 0.4 µg/mL (≈ 0.918 µM); MIC [5]: 0.5 µg/mL (≈ 1.15 µM); MIC (S. pasteuri KR 4358): 0.2 µg/mL (≈ 0.459 µM); MIC (S. aureus ATCC 6538): 0.2 µg/mL (≈ 0.459 µM); MIC used in biofilm eradication assay, S. aureus 6538 (S. aureus ATCC 6538; Table S1, MIC): 0.200 µg/mL (≈ 0.459 µM); MIC (S. epidermidis KR4243/1): 0.2 µg/mL (≈ 0.459 µM); MIC (S. aureus NCTC 4163): 0.2 µg/mL (≈ 0.459 µM); MIC (S. aureus 5595): 0.4 µg/mL (≈ 0.918 µM); MIC (E. cloacae 8): 0.05 µg/mL (≈ 0.115 µM)

Source: PMC10233829 (ACS Omega, 2023)
